The test has as its system ATF6. In words: ERSE ATF6-luciferase reporter assay (thapsigargin-induced ER stress). The conditions noted are these: Homo sapiens, U2OS; for inhibition at 1 µM: 8 h. It is filed as cell-based, human. The procedure: Human bone osteosarcoma (U2-OS) cells were obtained from the American Type Culture Collection (ATCC HTB-96, ATCC Manassas, VA) and were cultured with growing medium containing Dulbecco's Modified Eagle's Medium (DMEM) (Cat. No.:SH30023.02, HyClone) supplemented with fetal bovine serum (FBS) 10% (Cat. No.: 16000044, Gibco) and 1% penicillin-streptomycin antibiotic cocktail (Cat. No.: SV30010, Hyclone).
Cignal Lenti ATF6 luc reporter (Qiagen #CLS-6031L) was used to produce a stable cell line in U2-OS cells. […] The number of response elements as well as the intervening sequence between response elements has been experimentally optimized to maximize the signal to noise ratio.
Compounds were prepared as 10 mM stock solutions and stored at −80° C.
U2-OS ATF6 luc reporter cells were thawed 3-4 days and split once prior to assays. […] At the day of experiment, cells were pre-treated for 30 min with 50 μL growing medium containing either vehicle (dimethyl sulfoxide (DMSO)) (Cat. No.: D2650, Sigma-Aldrich) or 1 μM test compound. After the pre-incubation time, 50 μL of a solution containing 0.2 μM thapsigargin (Tg)(an ER stress inducer) was added to respective wells. This Tg solution also contained vehicle or test compounds at 1 μM. The final concentration of DMSO in each well was kept at 0.3%. Plates were incubated for 8 hr in humidified chambers.
Finally, after 8 hr, plates were cooled to room temperature for 10 min prior to luciferase assays. Luciferase reactions were performed using Luciferase Assay System (Cat. No.: E4550, Promega). Briefly, each well was washed with 100 μl of PBS1X and then 20 μl of lysis reagent were added into each well. Plates were shaken for 10 min, then 50 μl of Luciferase Assay Reagent were added to each well and luminescence was read with an integration time of 1 s and a gain of 110 in a Synergy 4 Microplate reader.
For the assessment of the half-maximal inhibitory concentration (IC50) for selected compounds, dose-response assays were performed. Compounds were serially diluted using DMSO starting at 30 μM until 1 nM. The assays were run as described above.
In general terms: Reporter assays use an easily measured gene product as a stand-in for the process of interest.

Where [1] appears, read: 1 μM test compound, thapsigargin-induced ER stress, U2-OS ATF6 luc reporter cells, 8 hr, read-out: Inh. ATF6-Luc @ 1 μM [%].
Setting [2] is: dose-response 30 μM to 1 nM, thapsigargin-induced ER stress, U2-OS ATF6 luc reporter cells, read-out: IC50 ATF6-Luc reporter.
[3] abbreviates: read-out: Inh. ATF6-Luc @ 1 μM [%], 1 μM test compound, thapsigargin-induced ER stress, U2-OS ATF6 luc reporter cells, 8 hr.
Where [4] appears, read: read-out: IC50 ATF6-Luc reporter [μM], dose-response 30 μM to 1 nM, thapsigargin-induced ER stress, U2-OS ATF6 luc reporter cells.

One may read the IC50 as the midpoint of a concentration-inhibition curve.

Read-outs that look alike come from different tables or passages of the source. Some results are limits rather than exact numbers.

As to `CC(c1ccc(C(F)(F)F)cc1C(F)(F)F)n1cc(NC(=O)c2csc(-c3ccccn3)n2)cn1` (stereo not shown) [Compound 79, N-(1-(1-(2,4-bis(trifluoromethyl)phenyl)ethyl)-1H-pyrazol-4-yl)-2-(pyridin-2-yl)thiazole-4-carboxamide], the inhibition at 1 µM (read-out: Inh. ATF6-Luc @ 1 μM [%]) was below 25%. Also, under “read-out: IC50 ATF6-Luc reporter [μM]”, the IC50 was above 10 µM.
For the molecule `C[C@H](c1ccc(C(F)(F)F)cc1C(F)(F)F)n1cc(NC(=O)c2cnccn2)cn1` [Compound 142, (R)—N-(1-(1-(2,4-bis(trifluoromethyl)phenyl)ethyl)-1H-pyrazol-4-yl)pyrazine-2-carboxamide], under setting [1], the inhibition at 1 µM was below 25%. The IC50 under setting [2] was above 10 µM.
Consider `O=C(Nc1cn(Cc2ccc(C(F)(F)F)cc2C(F)(F)F)cn1)c1cc(-c2ccco2)on1` [Compound 17, N-(1-(2,4-bis(trifluoromethyl)benzyl)-1H-imidazol-4-yl)-5-(furan-2-yl)isoxazole-3-carboxamide], for which, under setting [1], the inhibition at 1 µM is below 25%. For the same molecule, the IC50 under setting [2] is above 10 µM.
For `C[C@H](c1ccc(C(F)(F)F)cc1F)n1cc(NC(=O)c2cc(-c3ccccn3)on2)cn1` [Compound 108, (R)—N-(1-(1-(2-fluoro-4-(trifluoromethyl)phenyl)ethyl)-1H-pyrazol-4-yl)-5-(pyridine-2-yl)isoxazole-3-carboxamide], under setting [1], the inhibition at 1 µM is below 25%. The IC50 under setting [2] was above 10 µM.
For the molecule `C[C@@H](c1ccc(C(F)(F)F)cc1C(F)(F)F)n1cc(NC(=O)c2cnc(-c3ccccn3)s2)cn1` [Compound 105, (S)—N-(1-(1-(2,4-bis(trifluoromethyl)phenyl)ethyl)-1H-pyrazol-4-yl)-2-(pyridin-2-yl)thiazole-5-carboxamide], under setting [3], the inhibition at 1 µM was below 25%. Under setting [4], the IC50 was above 10 µM.
In the case of `COc1ccccc1-c1cc(C(=O)Nc2cnn([C@H](C)c3ccc(C(F)(F)F)cc3C(F)(F)F)c2)no1` [Compound 88, (R)N-(1-(1-(2,4-bis(trifluoromethyl)phenyl)ethyl)-1H-pyrazol-4-yl)-5-(2-methoxyphenyl)isoxazole-3-carboxamide], the inhibition at 1 µM under setting [1] was below 25%. Moreover, under setting [2], the IC50 is above 10 µM.
On to `CC(c1ccc(C(F)(F)F)cc1C(F)(F)F)n1cc(NC(=O)c2cc(-c3ncccc3Cl)on2)cn1` (stereo not shown) [Compound 32, N-(1-(1-(2,4-bis(trifluoromethyl)phenyl)ethyl)-1H-pyrazol-4-yl)-5-(3-chloropyridin-2-yl)isoxazole-3-carboxamide], for which the inhibition at 1 µM under setting [1] is below 25%. Also, the IC50 under setting [2] was above 10 µM.
The matching figures for `C[C@H](c1ccc(C(F)(F)F)cc1C(F)(F)F)n1cc(NC(=O)c2ccccn2)cn1` [Compound 140, (R)—N-(1-(1-(2,4-bis(trifluoromethyl)phenyl)ethyl)-1H-pyrazol-4-yl)picolinamide]: below 25% and above 10 µM.
`C[C@@H](c1ccc(C(F)(F)F)cc1C(F)(F)F)n1cc(NC(=O)c2cc(-c3ccccn3)[nH]n2)cn1` [Compound 120, (S)—N-(1-(1-(2,4-bis(trifluoromethyl)phenyl)ethyl)-1H-pyrazol-4-yl)-5-(pyridin-2-yl)-1H-pyrazole-3-carboxamide]: the inhibition at 1 µM under setting [1] was below 25%. The IC50 under setting [2] is above 10 µM.
Take `C[C@@H](c1ccc(C(F)(F)F)cc1C(F)(F)F)n1cc(NC(=O)c2nnc(-c3ccncn3)s2)cn1` [Compound 157, (S)—N-(1-(1-(2,4-bis(trifluoromethyl)phenyl)ethyl)-1H-pyrazol-4-yl)-5-(pyrimidin-4-yl)-1,3,4-thiadiazole-2-carboxamide]: the inhibition at 1 µM under setting [1] was below 25%. Besides, under setting [2], the IC50 was above 10 µM.
With `C[C@@H](c1ccc(C(F)(F)F)cc1C(F)(F)F)n1cc(NC(=O)c2cc(-c3ncccc3Cl)on2)cn1` [Compound 35, (S)-N-(1-(1-(2,4-bis(trifluoromethyl)phenyl)ethyl)-1H-pyrazol-4-yl)-5-(3-chloropyridin-2-yl)isoxazole-3-carboxamide], the inhibition at 1 µM under setting [1] is below 25%. For the same molecule, the IC50 under setting [2] is above 10 µM.
The corresponding values for `C[C@@H](c1ccc(C(F)(F)F)cc1F)n1cc(NC(=O)c2cc(-c3ccccn3)on2)cn1` [Compound 109, (S)—N-(1-(1-(2-fluoro-4-(trifluoromethyl)phenyl)ethyl)-1H-pyrazol-4-yl)-5-(pyridine-2-yl)isoxazole-3-carboxamide] are below 25% and above 10 µM.
`C[C@@H](c1ccc(C(F)(F)F)cc1C(F)(F)F)n1cc(NC(=O)c2nnc(-c3ccco3)s2)cn1` [Compound 161, (S)—N-(1-(1-(2,4-bis(trifluoromethyl)phenyl)ethyl)-1H-pyrazol-4-yl)-5-(furan-2-yl)-1,3,4-thiadiazole-2-carboxamide]: the inhibition at 1 µM under setting [1] lay in the range of 25 to 50%. Further, the IC50 under setting [2] is below 1 µM.
Turning to `O=C(Nc1cnn(Cc2ccc(C(F)(F)F)cc2C(F)(F)F)c1)c1cnc(Nc2ccccn2)s1` [Compound 130, N-(1-(2,4-bis(trifluoromethyl)benzyl)-1H-pyrazol-4-yl)-2-(pyridin-2-ylamino)thiazole-5-carboxamide], under setting [1], the inhibition at 1 µM is below 25%. In addition, under setting [2], the IC50 was above 10 µM.
For `Cc1nc(-c2ccccn2)sc1C(=O)Nc1cnn([C@@H](C)c2ccc(C(F)(F)F)cc2C(F)(F)F)c1` [Compound 107, (S)—N-(1-(1-(2,4-bis(trifluoromethyl)phenyl)ethyl)-1H-pyrazol-4-yl)-4-methyl-2-(pyridin-2-yl)thiazole-5-carboxamide], the inhibition at 1 µM under setting [1] was below 25%. Also, under setting [2], the IC50 is above 10 µM.
The corresponding values for `O=C(Nc1cnn(C2CCc3ccccc32)c1)c1nnc(-c2ccco2)s1` (stereo not shown) [Compound 144, N-(1-(2,3-dihydro-1H-inden-1-yl)-1H-pyrazol-4-yl)-5-(furan-2-yl)-1,3,4-thiadiazole-2-carboxamide] are below 25% and above 10 µM.
Take `C[C@H](c1ccc(C(F)(F)F)cc1C(F)(F)F)n1cc(NC(=O)/C=C/c2ccco2)cn1` [Compound 85, (R,E)—N-(1-(1-(2,4-bis(trifluoromethyl)phenyl)ethyl)-1H-pyrazol-4-yl)-3-(furan-2-yl)acrylamide]: under setting [1], the inhibition at 1 µM is below 25%. The IC50 under setting [2] is above 10 µM.
Take `C[C@@H](c1ccc(C(F)(F)F)cc1C(F)(F)F)n1cc(NC(=O)c2cc(-c3ncccn3)on2)cn1` [Compound 102, (S)—N-(1-(1-(2,4-bis(trifluoromethyl)phenyl)ethyl)-1H-pyrazol-4-yl)-5-(pyrimidin-2-yl)isoxazole-3-carboxamide]: the inhibition at 1 µM under setting [1] is below 25%. Moreover, the concentration for half-maximal inhibition (IC50) under setting [2] was above 10 µM.
With `C[C@@H](c1ccc(C(F)(F)F)cc1C(F)(F)F)n1cc(NC(=O)c2cn(-c3ccccn3)nn2)cn1` [Compound 122, (S)—N-(1-(1-(2,4-bis(trifluoromethyl)phenyl)ethyl)-1H-pyrazol-4-yl)-1-(pyridin-2-yl)-1H-1,2,3-triazole-4-carboxamide], the inhibition at 1 µM under setting [3] was below 25%. In addition, the IC50 under setting [4] is above 10 µM.
In the case of `C[C@H](c1ccc(C(F)(F)F)cc1C(F)(F)F)n1cc(NC(=O)c2cnc(-c3ccccn3)o2)cn1` [Compound 127, (R)N-(1-(1-(2,4-bis(trifluoromethyl)phenyl)ethyl)-1H-pyrazol-4-yl)-2-(pyridin-2-yl)oxazole-5-carboxamide], the inhibition at 1 µM under setting [1] is below 25%. In addition, under setting [2], the IC50 was above 10 µM.
Take `O=C(Nc1cnn(Cc2ccc(C(F)(F)F)cc2C(F)(F)F)c1)c1cnc(-c2ccccn2)s1` [Compound 118, N-(1-(2,4-bis(trifluoromethyl)benzyl)-1H-pyrazol-4-yl)-2-(pyridin-2-yl)thiazole-5-carboxamide]: the inhibition at 1 µM under setting [1] is below 25%. Besides, under setting [2], the IC50 fell in the range of 1 to 10 µM.
As to `Cc1nn(Cc2ccc(C(F)(F)F)cc2C(F)(F)F)cc1NC(=O)c1cc(-c2ccccn2)on1` [Compound 29, N-(1-(2,4-bis(trifluoromethyl)benzyl)-3-methyl-1H-pyrazol-4-yl)-5-(pyridin-2-yl)isoxazole-3-carboxamide], under setting [1], the inhibition at 1 µM was below 25%. In addition, under setting [2], the IC50 is above 10 µM.
With `O=C(Nc1cnn(-c2ccc(C(F)(F)F)cc2C(F)(F)F)c1)c1cc(-c2ccco2)on1` [Compound 27, N-(1-(2,4-bis(trifluoromethyl)phenyl)-1H-pyrazol-4-yl)-5-(furan-2-yl)isoxazole-3-carboxamide], the inhibition at 1 µM under setting [1] was below 25%. Under setting [2], the IC50 was above 10 µM.

The values above are taken from patent publication US20240124434A1, “ATF6 INHIBITORS AND USES THEREOF” (Altos Labs, Inc., priority 2018, published 2024).
